The values that follow come from PMC12130866, “Identification of the lydiamycin biosynthetic gene cluster in a plant pathogen guides structural revision and identification of molecular target” (Proceedings of the National Academy of Sciences of the …, 2025).

Data set [1] has as its target T1, E. coli PDF (Escherichia coli, UniProt P0A6K3). Put plainly: In vitro PDF inhibition assay, E. coli PDF, fML-pNA colorimetric coupled. It counts as biochemical. The settings on record: in vitro inhibition of E. coli PDF (10 nM); fML-pNA 20 µM; Aeromonas aminopeptidase 0.8 U/mL; lydiamycin A 0-50 µM; HEPES buffer pH 7.5, 1% DMSO; 405 nm, room temperature; sigmoidal fit of initial velocities; n = 3 independent experiments, SD.

The subject of the next data set is mycobacteria. Particulars: cited from earlier work.
The subject of the next data set is R. fascians D188 WT. The settings on record: 72 h.
Data set [2] has as its system R. fascians D188-5. As to the kind of experiment: In planta competition assay, WT or Δlyd against plasmid-free D188-5. The settings on record: N. benthamiana seedlings, 1:1 mixtures, 1 wk; WT vs Δlyd relative fitness P = 0.0068, two-tailed t test.
Data set [3] deals with R. fascians D188-5.
Data set [4] deals with T1, E. coli PDF. As to the kind of experiment: Michaelis-Menten kinetics of E. coli PDF with fML-pNA. Type of data set: biochemical. The settings on record: substrate fML-pNA, 405 nm, room temperature; 1% DMSO.

In brackets after ≈: the same amount, converted by molar mass. Numbered stars: 1 amine (or outer) side, 2 acyl side, 3 side chain; on linkers, the order of the positions; unused ones are H or OH. Bridge positions count the residues as written; N and C are the ends. Square brackets hold non-standard residues; d marks the D form. Peptide text beside a SMILES is read from it. * marks the point of attachment. Piz(1,6-dehydro) = O=C(O)[C@@H]1CCC=NN1; X2 = O=C([C@@H]1CCCNN1[*:1])[*:2]; X1 = CCCCC[C@H](CC(=O)O)C(=O)*

T1 sequence (P0A6K3 whole entry): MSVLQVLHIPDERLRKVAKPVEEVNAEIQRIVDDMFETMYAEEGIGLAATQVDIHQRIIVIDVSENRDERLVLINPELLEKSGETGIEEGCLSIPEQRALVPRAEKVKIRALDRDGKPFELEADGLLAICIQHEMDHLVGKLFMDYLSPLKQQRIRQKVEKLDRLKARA

The IC50 is the concentration that inhibits the measured activity by half. A low value points to greater potency in that assay. As a reminder, the MIC is the lowest concentration that inhibits growth of the organism. Consider `CCCCC[C@H](CC(=O)O)C(=O)N1N=CCC[C@H]1C(=O)N[C@H]1COC(=O)[C@@H]2CCCNN2C(=O)[C@H](C)NC(=O)[C@@H](CC(C)C)NC1=O` [lydiamycin A] (X1-[Piz(1,6-dehydro)]S[dL]A[X2]; ester 2-C), for which, at E. coli PDF [1], 6 µM corresponded to half-maximal inhibition (IC50). Besides, the “role of lydiamycin A production in leafy gall disease development” value in the data set on Nicotiana plants (WT versus Δlyd, plant or leafy gall mass at 4 wk) is given as “not required for leafy gall disease development”. For the same compound, the phytotoxic activity entry in the data set on Nicotiana plants (concluded from plant/gall mass, seedling root length and excised leaf assays, R. fascians WT versus Δlyd) is reported as “does not have phytotoxic activity”. For the same compound, the inhibition of mycobacteria result in the data set with mycobacteria was “previously shown to display antimycobacterial activity”. Also, the MIC against R. fascians D188 WT is greater than 600 µg/mL; against R. fascians D188-5 [3] (72 h) it was 10 µg/mL (≈ 15.1 µM). For the same compound, the “fitness effect of lydiamycin production in competition with D188-5” value in the data set on R. fascians D188-5 [2] was “significant fitness benefit”. Also, the “sensitivity of R. fascians D188-5 relative to R. fascians WT” value in the data set with R. fascians D188-5 [3] (D188-5 more sensitive than WT, from the MICs) is “at least 60 times”.

As a reminder, the Km is the substrate concentration at which the rate is half of its maximum. A word on the kcat: it is the maximal rate divided by the concentration of active sites. For “formyl-methionyl-leucyl-p-nitroaniline [fML-pNA]”, on E. coli PDF [4], the Km was determined as 27 µM and the kcat is 7 s⁻¹.
